Experimental data reported in PubChem BioAssay AID220 (DTP/NCI, 2004).
Values joined by “and” are separate entries in the source; they are usually repeats but may differ in a detail not shown here. Equal values may be shown once. Inconclusive results are not listed.

System: CD8F1 mice, subcutaneous mammary adenocarcinoma, T/C%
Test: NCI In Vivo Anticancer Drug Screen. Data for tumor model Mammary Adenocarcinoma CD8F1 (subcutaneous) in CD8F1
Conditions: higher = larger tumour
Method in brief: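 Tumor-bearing mice, transplantable model; readout survival or tumor size; value = treated (T) / vehicle control (C).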

[1] = endpoint: median tumor weight (est.), dose: 25.0 mg/kg/injection, schedule: Q07DX005 (ip), vehicle: Klucel (hydroxypropylcellulose) (HPC)
[2] = endpoint: median tumor weight (est.), dose: 100.0 mg/kg/injection, schedule: Q07DX005 (ip), vehicle: Klucel (hydroxypropylcellulose) (HPC)
[3] = endpoint: median tumor weight (est.), dose: 200.0 mg/kg/injection, schedule: Q07DX005 (ip), vehicle: Klucel (hydroxypropylcellulose) (HPC)
[4] = endpoint: median tumor weight (est.), dose: 400.0 mg/kg/injection, schedule: Q07DX005 (ip), vehicle: Klucel (hydroxypropylcellulose) (HPC)
[5] = endpoint: median tumor weight change, dose: 125.0 mg/kg/injection, schedule: Q01DX001 (ip), vehicle: saline with Tween-80

For `CC(C)(C)C1CCCCC1`, the T/C (endpoint: median tumor weight (est.), dose: 12.5 mg/kg/injection, schedule: Q07DX005 (ip), vehicle: Klucel (hydroxypropylcellulose) (HPC)) was 85 % of control, the T/C [1] was 69 % of control and the T/C [2] was 94 % of control. The T/C [3] was 73 % of control and the T/C [4] was 69 % of control.
`C[C@@]1(CO)[C@H](O)CC[C@@]2(C)[C@H]1CC[C@H]1C[C@@H]3C[C@@]12CC[C@@]3(O)COC(=O)CN` was tested, and the T/C (endpoint: median tumor weight change, dose: 9.88 mg/kg/injection, schedule: Q01DX001 (ip), vehicle: Klucel (hydroxypropylcellulose) (HPC)) was 78 % of control, the T/C (endpoint: median tumor weight change, dose: 18.75 mg/kg/injection, schedule: Q01DX001 (ip), vehicle: Klucel (hydroxypropylcellulose) (HPC)) was 68 % of control and the T/C (endpoint: median tumor weight change, dose: 37.5 mg/kg/injection, schedule: Q01DX001 (ip), vehicle: Klucel (hydroxypropylcellulose) (HPC)) was 98 % of control. For the same compound, the T/C (endpoint: median tumor weight change, dose: 75.0 mg/kg/injection, schedule: Q01DX001 (ip), vehicle: Klucel (hydroxypropylcellulose) (HPC)) was 84 % of control, the T/C (endpoint: median tumor weight change, dose: 62.5 micrograms/kg/injection, schedule: Q01DX001 (ip), vehicle: saline + alcohol) was 170 % of control and the T/C (endpoint: median tumor weight change, dose: 125.0 micrograms/kg/injection, schedule: Q01DX001 (ip), vehicle: saline + alcohol) was 90 % of control. For the same compound, the T/C (endpoint: median tumor weight change, dose: 250.0 micrograms/kg/injection, schedule: Q01DX001 (ip), vehicle: saline + alcohol) was 115 % of control and the T/C (endpoint: median tumor weight change, dose: 1000.0 micrograms/kg/injection, schedule: Q01DX001 (ip), vehicle: saline + alcohol) was 106 % of control.
`CC(=O)C1(O)Cc2c(O)c3c(c(O)c2C(OC2CC(N)C(O)C(C)O2)C1)C(=O)c1ccccc1C3=O` (stereo unspecified) was tested, and the T/C (endpoint: median tumor weight (est.), dose: 0.1 mg/kg/injection, schedule: Q07DX005 (ip), vehicle: saline) was 81 % of control, the T/C (endpoint: median tumor weight (est.), dose: 0.2 mg/kg/injection, schedule: Q07DX005 (ip), vehicle: saline) was 55 % of control and the T/C (endpoint: median tumor weight (est.), dose: 0.4 mg/kg/injection, schedule: Q07DX005 (ip), vehicle: saline) was 48 % of control.
`CC1C=NNC1=O` (stereo unspecified) was tested, and the T/C [1] was 20 % of control, the T/C (endpoint: median tumor weight (est.), dose: 50.0 mg/kg/injection, schedule: Q07DX005 (ip), vehicle: Klucel (hydroxypropylcellulose) (HPC)) was 187 % of control and the T/C [2] was 234 % of control. For the same compound, the T/C [3] was 182 % of control and the T/C [4] was 23 % of control.
In the case of `CCc1nc(N)nc(N)c1-c1ccc(Cl)c(N=[N+]=[N-])c1`, the T/C (endpoint: median tumor weight change, dose: 62.5 mg/kg/injection, schedule: Q01DX001 (ip), vehicle: saline with Tween-80) is reported as 57 % of control, the T/C [5] is reported as 78 % of control and the T/C (endpoint: median tumor weight change, dose: 2000.0 mg/kg/injection, schedule: Q01DX001 (ip), vehicle: saline with Tween-80) is reported as 24 % of control.
For `CSC1SCC2C(=O)N(C)C(C(C)C)C(=O)OCC(NC(=O)c3cnc4ccccc4n3)C(=O)NC(C)C(=O)N(C)C1C(=O)N(C)C(C(C)C)C(=O)OCC(NC(=O)c1cnc3ccccc3n1)C(=O)NC(C)C(=O)N2C` (stereo unspecified), the T/C (endpoint: mean tumor weight, dose: 7.5 micrograms/kg/injection, schedule: Q07DX005 (ip), vehicle: saline) was 67 % of control, the T/C (endpoint: mean tumor weight, dose: 15.0 micrograms/kg/injection, schedule: Q07DX005 (ip), vehicle: saline) was 83 % of control and the T/C (endpoint: median tumor weight (est.), dose: 7.5 micrograms/kg/injection, schedule: Q07DX005 (ip), vehicle: saline) was 82 % of control. The T/C (endpoint: median tumor weight (est.), dose: 15.0 micrograms/kg/injection, schedule: Q07DX005 (ip), vehicle: saline) was 67 % of control, the T/C (endpoint: median tumor weight (est.), dose: 30.0 micrograms/kg/injection, schedule: Q07DX005 (ip), vehicle: saline) was 97 % of control and the T/C (endpoint: median tumor weight (est.), dose: 60.0 micrograms/kg/injection, schedule: Q07DX005 (ip), vehicle: saline) was 117 % of control. For the same compound, the T/C (endpoint: median tumor weight (est.), dose: 120.0 micrograms/kg/injection, schedule: Q07DX005 (ip), vehicle: saline) was 76 % of control.
For `Cc1cc(NS(=O)(=O)c2ccc(N=Nc3cc(N=Nc4ccc(S(=O)(=O)Nc5cc(C)nc(C)n5)cc4)c4c(NC(=O)C(Cl)Cl)cccc4c3OC(=O)C(Cl)Cl)cc2)nc(C)n1` (tested in a mixture with another compound), the T/C (endpoint: median tumor weight change, dose: 250.0 mg/kg/injection, schedule: Q01DX001 (ip), vehicle: suspension in saline) was 167 % of control and the T/C (endpoint: median tumor weight change, dose: 500.0 mg/kg/injection, schedule: Q01DX001 (ip), vehicle: suspension in saline) was 65 % of control.
For `[Cl][Hg][Cl]`, the T/C (endpoint: median tumor weight change, dose: 1.56 mg/kg/injection, schedule: Q01DX001 (ip), vehicle: saline) was 87 % of control and the T/C (endpoint: median tumor weight change, dose: 3.12 mg/kg/injection, schedule: Q01DX001 (ip), vehicle: saline) was 71 % of control.
In the case of `NC(C/[N+]([O-])=N/O)C(=O)O` (stereo unspecified), the T/C (endpoint: mean tumor weight, dose: 32.0 mg/kg/injection, schedule: Q07DX006 (ip), vehicle: saline) is reported as 47 % of control, the T/C (endpoint: mean tumor weight, dose: 64.0 mg/kg/injection, schedule: Q07DX006 (ip), vehicle: saline) is reported as 4 % of control and the T/C (endpoint: mean tumor weight, dose: 128.0 mg/kg/injection, schedule: Q07DX006 (ip), vehicle: saline) is reported as 32 % of control. The T/C (endpoint: mean tumor weight, dose: 256.0 mg/kg/injection, schedule: Q07DX006 (ip), vehicle: saline) was 117 % of control, the T/C (endpoint: mean tumor weight, dose: 512.0 mg/kg/injection, schedule: Q07DX006 (ip), vehicle: saline) was 7 % of control and the T/C (endpoint: mean tumor weight, dose: 1024.0 mg/kg/injection, schedule: Q07DX006 (ip), vehicle: saline) was 8 % of control. For the same compound, the T/C (endpoint: median tumor weight (est.), dose: 25.0 mg/kg/injection, schedule: Q07DX005 (ip), vehicle: saline) was 63 % of control, the T/C (endpoint: median tumor weight (est.), dose: 50.0 mg/kg/injection, schedule: Q07DX005 (ip), vehicle: saline) was 68 % of control and the T/C (endpoint: median tumor weight (est.), dose: 64.0 mg/kg/injection, schedule: Q01DX005 (ip), vehicle: saline) was 85 % of control. For the same compound, the T/C (endpoint: median tumor weight (est.), dose: 100.0 mg/kg/injection, schedule: Q07DX005 (ip), vehicle: saline) was 57 % of control, the T/C (endpoint: median tumor weight (est.), dose: 128.0 mg/kg/injection, schedule: Q01DX005 (ip), vehicle: saline) was 92 % of control and the T/C (endpoint: median tumor weight (est.), dose: 200.0 mg/kg/injection, schedule: Q07DX005 (ip), vehicle: saline) was 56 % of control. The T/C (endpoint: median tumor weight (est.), dose: 256.0 mg/kg/injection, schedule: Q01DX005 (ip), vehicle: saline) was 51 % of control, the T/C (endpoint: median tumor weight (est.), dose: 400.0 mg/kg/injection, schedule: Q07DX005 (ip), vehicle: saline) was 49 % of control and the T/C (endpoint: median tumor weight (est.), dose: 512.0 mg/kg/injection, schedule: Q01DX005 (ip), vehicle: saline) was 31 % of control. For the same compound, the T/C (endpoint: median tumor weight (est.), dose: 1024.0 mg/kg/injection, schedule: Q01DX005 (ip), vehicle: saline) was 63 % of control.
In the case of `C=C(C)[C@@H]1CCc2c(O)c(O)c(=O)cc(C)c2C1`, the T/C (endpoint: median tumor weight change, dose: 31.0 mg/kg/injection, schedule: Q01DX001 (ip), vehicle: saline with Tween-80) is reported as 83 % of control, the T/C (endpoint: median tumor weight change, dose: 62.0 mg/kg/injection, schedule: Q01DX001 (ip), vehicle: saline with Tween-80) is reported as 57 % of control and the T/C [5] is reported as 88 % of control. The T/C (endpoint: median tumor weight change, dose: 250.0 mg/kg/injection, schedule: Q01DX001 (ip), vehicle: saline with Tween-80) was 57 % of control and the T/C (endpoint: median tumor weight change, dose: 500.0 mg/kg/injection, schedule: Q01DX001 (ip), vehicle: saline with Tween-80) was 93 % of control.
With `COC(=O)Nc1nc2ccc(SC)cc2c(=O)[nH]1` the T/C (endpoint: median tumor weight change, dose: 125.0 mg/kg/injection, schedule: Q01DX001 (ip), vehicle: Klucel (hydroxypropylcellulose) (HPC)) was 79 % of control, the T/C (endpoint: median tumor weight change, dose: 250.0 mg/kg/injection, schedule: Q01DX001 (ip), vehicle: Klucel (hydroxypropylcellulose) (HPC)) was 61 % of control and the T/C (endpoint: median tumor weight change, dose: 500.0 mg/kg/injection, schedule: Q01DX001 (ip), vehicle: Klucel (hydroxypropylcellulose) (HPC)) was 57 % of control.
For `C[C@]12CC[C@H]3[C@@H](CCC4=C[C@@H](OC5OCC(OC6OC(CO)C(O)C(O)C6O)C(O)C5O)CC[C@@]43C=O)[C@@]1(O)CCC2C1=CC(=O)OC1` (stereo partly specified), the T/C (endpoint: median tumor weight (est.), dose: 0.62 mg/kg/injection, schedule: Q07DX005 (ip), vehicle: Klucel (hydroxypropylcellulose) (HPC)) was 63 % of control, the T/C (endpoint: median tumor weight (est.), dose: 1.25 mg/kg/injection, schedule: Q07DX005 (ip), vehicle: Klucel (hydroxypropylcellulose) (HPC)) was 85 % of control and 89 % of control and the T/C (endpoint: median tumor weight (est.), dose: 10.0 mg/kg/injection, schedule: Q07DX005 (ip), vehicle: Klucel (hydroxypropylcellulose) (HPC)) was 93 % of control and 108 % of control. For the same compound, the T/C (endpoint: median tumor weight (est.), dose: 20.0 mg/kg/injection, schedule: Q07DX005 (ip), vehicle: Klucel (hydroxypropylcellulose) (HPC)) was 106 % of control and the T/C (endpoint: median tumor weight (est.), dose: 40.0 mg/kg/injection, schedule: Q07DX005 (ip), vehicle: Klucel (hydroxypropylcellulose) (HPC)) was 93 % of control.
`COc1cc2cc(c1Cl)N(C)C(=O)CC(OC(=O)C(C)N(C)C(=O)C(C)C)C1(C)OC1C(C)C1CC(O)(NC(=O)O1)C(OC)/C=C/C=C(C)C2OC` (stereo unspecified) was tested, and the T/C (endpoint: median tumor weight change, dose: 16.0 micrograms/kg/injection, schedule: Q01DX001 (ip), vehicle: Klucel (hydroxypropylcellulose) (HPC)) was 73 % of control, the T/C (endpoint: median tumor weight change, dose: 32.0 micrograms/kg/injection, schedule: Q01DX001 (ip), vehicle: Klucel (hydroxypropylcellulose) (HPC)) was 124 % of control and the T/C (endpoint: median tumor weight change, dose: 64.0 micrograms/kg/injection, schedule: Q01DX001 (ip), vehicle: Klucel (hydroxypropylcellulose) (HPC)) was 82 % of control. For the same compound, the T/C (endpoint: median tumor weight change, dose: 128.0 micrograms/kg/injection, schedule: Q01DX001 (ip), vehicle: Klucel (hydroxypropylcellulose) (HPC)) was 80 % of control and the T/C (endpoint: median tumor weight change, dose: 256.0 micrograms/kg/injection, schedule: Q01DX001 (ip), vehicle: Klucel (hydroxypropylcellulose) (HPC)) was 64 % of control.
`ClC(Cl)=C(Cl)Cl` was tested, and the T/C (endpoint: median tumor weight change, dose: 62.5 mg/kg/injection, schedule: Q01DX001 (ip), vehicle: other) was 157 % of control and the T/C (endpoint: median tumor weight change, dose: 125.0 mg/kg/injection, schedule: Q01DX001 (ip), vehicle: other) was 191 % of control.
